{"source": "patent US10849879B2", "about": "“Localized modulation of tissues and cells to enhance therapeutic effects including renal denervation” (Mercator MedSystems, Inc., priority 2011, dated 2020)", "origin": "cited, not measured here", "tested_on": "axon", "note": "“And” between values parts separate entries of the source, which are not always exact repeats. Identical values can stand only once."}
{"substance": "(2-(Hexahydro-1(2H)-azocinyl)ethyl)guanidine sulfate (1:1) [guanethidine monosulfate]", "values": [{"measurement": "concentrations producing axon retraction in vitro", "value": "≥ 0.2 mM and ≥ 60 μg/mL"}]}
